# How the values were obtained:
# [1] = target: T1, recombinant guanylate cyclase reporter cell line (Rattus norvegicus, UniProt P19686+P20595); assay: Effect on a recombinant guanylate cyclase reporter cell line; assay type: cell-based; conditions: MEC = minimum effective concentration; in some cases means of individual determinations
# T1 construct: expressed in transfected cells
# T1 sequence (P19686 1-690): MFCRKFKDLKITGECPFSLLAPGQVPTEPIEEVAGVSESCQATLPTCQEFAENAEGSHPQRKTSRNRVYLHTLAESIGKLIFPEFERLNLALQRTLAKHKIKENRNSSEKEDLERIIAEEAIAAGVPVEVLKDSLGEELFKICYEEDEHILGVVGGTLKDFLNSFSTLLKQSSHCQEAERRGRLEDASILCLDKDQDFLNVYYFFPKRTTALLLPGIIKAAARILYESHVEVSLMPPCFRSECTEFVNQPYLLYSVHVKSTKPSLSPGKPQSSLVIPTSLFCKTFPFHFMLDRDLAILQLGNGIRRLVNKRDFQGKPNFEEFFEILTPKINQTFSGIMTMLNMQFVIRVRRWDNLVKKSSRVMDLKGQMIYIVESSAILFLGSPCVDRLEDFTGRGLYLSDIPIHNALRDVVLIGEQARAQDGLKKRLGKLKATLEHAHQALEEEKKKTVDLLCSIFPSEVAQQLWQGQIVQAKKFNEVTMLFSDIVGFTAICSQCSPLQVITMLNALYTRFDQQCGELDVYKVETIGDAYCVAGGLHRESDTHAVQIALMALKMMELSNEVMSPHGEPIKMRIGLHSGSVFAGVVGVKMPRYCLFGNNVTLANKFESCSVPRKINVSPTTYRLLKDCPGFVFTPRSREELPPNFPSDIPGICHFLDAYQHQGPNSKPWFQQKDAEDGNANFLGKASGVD
# T1 sequence (P20595 1-619): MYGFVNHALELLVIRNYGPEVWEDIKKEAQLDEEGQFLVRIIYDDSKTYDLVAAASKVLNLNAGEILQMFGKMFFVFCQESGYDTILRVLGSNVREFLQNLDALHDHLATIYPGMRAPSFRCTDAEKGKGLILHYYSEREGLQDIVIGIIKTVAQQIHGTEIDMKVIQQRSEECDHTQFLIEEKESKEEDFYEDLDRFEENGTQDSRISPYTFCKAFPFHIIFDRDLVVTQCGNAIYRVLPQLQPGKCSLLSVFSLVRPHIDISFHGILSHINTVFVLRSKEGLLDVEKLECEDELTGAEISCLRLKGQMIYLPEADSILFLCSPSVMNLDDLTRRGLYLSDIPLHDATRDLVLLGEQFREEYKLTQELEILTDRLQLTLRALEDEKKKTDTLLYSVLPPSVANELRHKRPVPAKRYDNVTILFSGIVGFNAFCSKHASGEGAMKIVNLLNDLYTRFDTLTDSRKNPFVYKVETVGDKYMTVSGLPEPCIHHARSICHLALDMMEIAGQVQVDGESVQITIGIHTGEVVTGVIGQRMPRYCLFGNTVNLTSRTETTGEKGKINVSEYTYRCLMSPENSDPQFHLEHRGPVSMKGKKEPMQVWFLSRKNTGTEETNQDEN
# Procedure, shortened: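 Values are reported as MEC, sometimes averaged over individual determinations. The test system is a reporter cell line expressing recombinant rat guanylate cyclase.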
# [2] = target: T2, human phosphodiesterase 5 (PDE 5) (Homo sapiens, UniProt O76074); assay: Inhibition of human phosphodiesterase 5 (PDE 5); assay type: biochemical; conditions: PDE 5 preparation from human platelets; in some cases means of individual determinations
# T2 construct: PDE 5 preparations are obtained from human platelets by disruption; from tissue; host or cells: human platelets
# Procedure, shortened: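 IC50 comes from percent inhibition over a 1:3 series with final levels of 4 to 0.0018 μM. Reaction: tritiated cGMP tracer (0.025 μCi) with platelet-derived, Mono Q-purified enzyme, 1 h at room temperature in Tris pH 7.5, under 70% turnover. Read-out by scintillation proximity beads.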
Structure (SMILES),MEC [1] [µM],IC50 [2] [nM]
"CC1(C)C(=O)Nc2nc(-c3nn(Cc4ccccc4F)c4ncccc34)nc(C(=O)NCC3CC3)c21 [Example 84, N-(cyclopropylmethyl)-2-[1-(2-fluorobenzyl)-1H-pyrazolo[3,4-b]pyridin-3-yl]-5,5-dimethyl-6-oxo-6,7-dihydro-5H-pyrrolo[2,3-d]pyrimidine-4-carboxamide]",0.1,23
"CC(C)=CCNC(=O)c1nc(-c2nn(Cc3ccccc3F)c3ncccc23)nc2c1C(C)(C)C(=O)N2 [Example 85, 2-[1-(2-fluorobenzyl)-1H-pyrazolo[3,4-b]pyridin-3-yl]-5,5-dimethyl-N-(3-methylbut-2-en-1-yl)-6-oxo-6,7-dihydro-5H-pyrrolo[2,3-d]pyrimidine-4-carboxamide]",0.1,38
"CNC(=O)c1nc(-c2nn(Cc3ccccc3F)c3ncccc23)nc2c1C(C)(C)C(=O)N2 [Example 86, 2-[1-(2-fluorobenzyl)-1H-pyrazolo[3,4-b]pyridin-3-yl]-N,5,5-trimethyl-6-oxo-6,7-dihydro-5H-pyrrolo[2,3-d]pyrimidine-4-carboxamide]",0.1,44
"CC1(C)C(=O)Nc2nc(-c3nn(Cc4ccccc4F)c4ncccc34)nc(C(=O)Nc3cc[nH]n3)c21 [Example 87, 2-[1-(2-fluorobenzyl)-1H-pyrazolo[3,4-b]pyridin-3-yl]-5,5-dimethyl-6-oxo-N-(1H-pyrazol-3-yl)-6,7-dihydro-5H-pyrrolo[2,3-d]pyrimidine-4-carboxamide]",0.3,24
"CC1(C)C(=O)Nc2nc(-c3nn(Cc4ccccc4F)c4ncccc34)nc(C(=O)Nc3cccnc3)c21 [Example 89, 2-[1-(2-fluorobenzyl)-1H-pyrazolo[3,4-b]pyridin-3-yl]-5,5-dimethyl-6-oxo-N-(pyridin-3-yl)-6,7-dihydro-5H-pyrrolo[2,3-d]pyrimidine-4-carboxamide]",0.3,9
"COCCCNC(=O)c1nc(-c2nn(Cc3ccccc3F)c3ncccc23)nc2c1C(C)(C)C(=O)N2 [Example 90, 2-[1-(2-fluorobenzyl)-1H-pyrazolo[3,4-b]pyridin-3-yl]-N-(3-methoxypropyl)-5,5-dimethyl-6-oxo-6,7-dihydro-5H-pyrrolo[2,3-d]pyrimidine-4-carboxamide]",0.1,14
"Cc1ccc(NC(=O)c2nc(-c3nn(Cc4ccccc4F)c4ncccc34)nc3c2C(C)(C)C(=O)N3)cn1 [Example 91, 2-[1-(2-fluorobenzyl)-1H-pyrazolo[3,4-b]pyridin-3-yl]-5,5-dimethyl-N-(6-methylpyridin-3-yl)-6-oxo-6,7-dihydro-5H-pyrrolo[2,3-d]pyrimidine-4-carboxamide]",0.3,68
"CC1(C)C(=O)Nc2nc(-c3nn(Cc4ccccc4F)c4ncccc34)nc(C(=O)NCC3CCCC3)c21 [Example 92, N-(cyclopentylmethyl)-2-[1-(2-fluorobenzyl)-1H-pyrazolo[3,4-b]pyridin-3-yl]-5,5-dimethyl-6-oxo-6,7-dihydro-5H-pyrrolo[2,3-d]pyrimidine-4-carboxamide]",0.3,35
"CC1(C)C(=O)Nc2nc(-c3nn(Cc4ccccc4F)c4ncccc34)nc(C(=O)Nc3nncs3)c21 [Example 93, 2-[1-(2-fluorobenzyl)-1H-pyrazolo[3,4-b]pyridin-3-yl]-5,5-dimethyl-6-oxo-N-(1,3,4-thiadiazol-2-yl)-6,7-dihydro-5H-pyrrolo[2,3-d]pyrimidine-4-carboxamide]",0.1,55
"CC1(C)C(=O)Nc2nc(-c3nn(Cc4ccccc4F)c4ncccc34)nc(C(=O)Nc3nnc[nH]3)c21 [Example 94, 2-[1-(2-fluorobenzyl)-1H-pyrazolo[3,4-b]pyridin-3-yl]-5,5-dimethyl-6-oxo-N-(4H-1,2,4-triazol-3-yl)-6,7-dihydro-5H-pyrrolo[2,3-d]pyrimidine-4-carboxamide]",0.3,16
"CC1(C)C(=O)Nc2nc(-c3nn(Cc4ccccc4F)c4ncccc34)nc(C(=O)NCCC(N)=O)c21 [Example 95, N-(3-amino-3-oxopropyl)-2-[1-(2-fluorobenzyl)-1H-pyrazolo[3,4-b]pyridin-3-yl]-5,5-dimethyl-6-oxo-6,7-dihydro-5H-pyrrolo[2,3-d]pyrimidine-4-carboxamide]",1,48
"CC1(C)C(=O)Nc2nc(-c3nn(Cc4ccccc4F)c4ncccc34)nc(C(=O)NCCOCC(F)(F)F)c21 [Example 96, 2-[1-(2-fluorobenzyl)-1H-pyrazolo[3,4-b]pyridin-3-yl]-5,5-dimethyl-6-oxo-N-[2-(2,2,2-trifluoroethoxy)ethyl]-6,7-dihydro-5H-pyrrolo[2,3-d]pyrimidine-4-carboxamide]",0.03,62
"CC1(NC(=O)c2nc(-c3nn(Cc4ccccc4F)c4ncccc34)nc3c2C(C)(C)C(=O)N3)CCC1 [Example 97, 2-[1-(2-fluorobenzyl)-1H-pyrazolo[3,4-b]pyridin-3-yl]-5,5-dimethyl-N-(1-methylcyclobutyl)-6-oxo-6,7-dihydro-5H-pyrrolo[2,3-d]pyrimidine-4-carboxamide]",0.3,8.2
"CC1(C)C(=O)Nc2nc(-c3nn(Cc4ccccc4F)c4ncccc34)nc(C(=O)NC3CCOCC3)c21 [Example 98, 2-[1-(2-fluorobenzyl)-1H-pyrazolo[3,4-b]pyridin-3-yl]-5,5-dimethyl-6-oxo-N-(tetrahydro-2H-pyran-4-yl)-6,7-dihydro-5H-pyrrolo[2,3-d]pyrimidine-4-carboxamide]",1,33
"CC1(C)C(=O)Nc2nc(-c3nn(Cc4ccccc4F)c4ncccc34)nc(C(=O)Nc3cn[nH]c3)c21 [Example 100, 2-[1-(2-fluorobenzyl)-1H-pyrazolo[3,4-b]pyridin-3-yl]-5,5-dimethyl-6-oxo-N-(1H-pyrazol-4-yl)-6,7-dihydro-5H-pyrrolo[2,3-d]pyrimidine-4-carboxamide]",0.3,4.3
"CC1(CNC(=O)c2nc(-c3nn(Cc4ccccc4F)c4ncccc34)nc3c2C(C)(C)C(=O)N3)COC1 [Example 103, 2-[1-(2-fluorobenzyl)-1H-pyrazolo[3,4-b]pyridin-3-yl]-5,5-dimethyl-N-[(3-methyloxetan-3-yl)methyl]-6-oxo-6,7-dihydro-5H-pyrrolo[2,3-d]pyrimidine-4-carboxamide]",0.3,10
"CC1(C)C(=O)Nc2nc(-c3nn(Cc4ccccc4F)c4ncccc34)nc(C(=O)Nc3cncc(F)c3)c21 [Example 107, 2-[1-(2-fluorobenzyl)-1H-pyrazolo[3,4-b]pyridin-3-yl]-N-(5-fluoropyridin-3-yl)-5,5-dimethyl-6-oxo-6,7-dihydro-5H-pyrrolo[2,3-d]pyrimidine-4-carboxamide]",0.3,73
"CC1(C)C(=O)Nc2nc(-c3nn(Cc4ccccc4F)c4ncccc34)nc(C(=O)Nc3cnccn3)c21 [Example 108, 2-[1-(2-fluorobenzyl)-1H-pyrazolo[3,4-b]pyridin-3-yl]-5,5-dimethyl-6-oxo-N-(pyrazin-2-yl)-6,7-dihydro-5H-pyrrolo[2,3-d]pyrimidine-4-carboxamide]",0.3,25
"Cn1cnc(NC(=O)c2nc(-c3nn(Cc4ccccc4F)c4ncccc34)nc3c2C(C)(C)C(=O)N3)n1 [Example 109, 2-[1-(2-fluorobenzyl)-1H-pyrazolo[3,4-b]pyridin-3-yl]-5,5-dimethyl-N-(1-methyl-1H-1,2,4-triazol-3-yl)-6-oxo-6,7-dihydro-5H-pyrrolo[2,3-d]pyrimidine-4-carboxamide]",0.3,39

# Source: patent publication US20170233413A1, “SUBSTITUTED ANNULATED PYRIMIDINES AND USE THEREOF” (Bayer Pharma Aktiengesellschaft, priority 2014, published 2017)
